Laboratory results published in patent US11319299B2, “Substituted carboxamides as inhibitors of WDR5 protein-protein binding” (PROPELLON THERAPEUTICS INC., priority 2016, dated 2022).
pKd: −log10 of the molar value.

molecular target: WDR5 (Homo sapiens (Human), UniProt P61964); test: Surface Plasmon Resonance (SPR) assay, KD and residence time; format: binding; settings: surface plasmon resonance (SPR) assay; read-out: WDR5 binding affinity (KD)

Structure (SMILES)	pKd
C[C@@H]1CN(c2cc(F)c(-c3cnc(N4CCOCC4)nc3)cc2NC(=O)c2cc(F)cc(F)c2)C[C@H](C)N1C [Example 160, 3,5-difluoro-N-[4-fluoro-5-(2-morpholin-4-ylpyrimidin-5-yl)-2-[(3R,5S)-3,4,5-trimethylpiperazin-1-yl]phenyl]benzamide]	7.57
C[C@@H]1CN(c2cc(F)c(-c3cnc(N4CCOCC4)nc3)cc2NC(=O)c2cccc(Cl)c2F)C[C@H](C)N1C [Example 140, 3-chloro-2-fluoro-N-[4-fluoro-5-(2-morpholin-4-ylpyrimidin-5-yl)-2-[(3R,5S)-3,4,5-trimethylpiperazin-1-yl]phenyl]benzamide]	7.73
CC1CN(c2cc(F)c(-c3cnc(N4CCOCC4)nc3)cc2NC(=O)c2ccc(F)cc2Cl)CCN1C (stereo in doubt) [Example 230, 2-chloro-4-fluoro-N-[4-fluoro-5-(2-morpholin-4-ylpyrimidin-5-yl)-2-[(3R)-3,4-dimethylpiperazin-1-yl]phenyl]benzamide]	8.05
COc1cc(Cl)cc(C(=O)Nc2cc(-c3cnc(N4CCOCC4)nc3)c(F)cc2N2C[C@@H](C)N(C)[C@@H](C)C2)c1 [Example 265, 3-chloro-N-[4-fluoro-5-(2-morpholin-4-ylpyrimidin-5-yl)-2-[(3R,5S)-3,4,5-trimethylpiperazin-1-yl]phenyl]-5-methoxybenzamide]	7.55
CCN(C)[C@@H]1CN(c2cc(F)c(-c3cnc(N4CCOCC4)nc3)cc2NC(=O)c2c[nH]c(=O)cc2C(F)(F)F)C[C@H]1F [Example 344, N-[4-fluoro-5-(2-morpholin-4-ylpyrimidin-5-yl)-2-[(3R,4R)-3-[ethyl(methyl)amino]-4-fluoropyrrolidin-1-yl]phenyl]-6-oxo-4-(trifluoromethyl)-1H-pyridine-3-carboxamide]	7.91
CN1CCN(c2cc(F)c(-c3cnc(N4CCOCC4)nc3)cc2NC(=O)c2c[nH]c(=O)cc2C(F)(F)F)CC1(C)C [Example 225, N-[4-fluoro-5-(2-morpholin-4-ylpyrimidin-5-yl)-2-(3,3,4-trimethylpiperazin-1-yl)phenyl]-6-oxo-4-(trifluoromethyl)-1H-pyridine-3-carboxamide]	5.52
C[C@@H]1CN(c2cc(F)c(-c3cnc(N4CCOCC4)nc3)cc2NC(=O)c2cc(F)c(F)c(F)c2)C[C@H](C)N1C [Example 296, 3,4,5-trifluoro-N-[4-fluoro-5-(2-morpholin-4-ylpyrimidin-5-yl)-2-[(3R,5S)-3,4,5-trimethylpiperazin-1-yl]phenyl]benzamide]	7.67

The remaining lines, values ahead:

pKd	Structure (SMILES)
9.14	C[C@@H]1CN(c2cc(F)c(-c3cnc(N4CC(C)(C)OC(C)(C)C4)nc3)cc2NC(=O)c2c[nH]c(=O)cc2C(F)(F)F)C[C@H](C)N1C [Example 320, N-[4-fluoro-2-[(3R,5S)-3,4,5-trimethylpiperazin-1-yl]-5-[2-(2,2,6,6-tetramethylmorpholin-4-yl)pyrimidin-5-yl]phenyl]-6-oxo-4-(trifluoromethyl)-1H-pyridine-3-carboxamide]
7.64	C[C@@H]1CN(c2cc(F)c(-c3cnc(N4CCOCC4)nc3)cc2NC(=O)c2c(F)cccc2C(F)(F)F)C[C@H](C)N1C [Example 297, 2-fluoro-N-[4-fluoro-5-(2-morpholin-4-ylpyrimidin-5-yl)-2-[(3R,5S)-3,4,5-trimethylpiperazin-1-yl]phenyl]-6-(trifluoromethyl)benzamide]
9.14	C[C@@H]1CN(c2ncc(-c3cc(NC(=O)c4c[nH]c(=O)cc4C(F)F)c(N4C[C@@H](C)N(C)[C@@H](C)C4)cc3F)cn2)C[C@H](C)O1 [Example 385, 4-(difluoromethyl)-N-[4-fluoro-5-[2-[(2R,6S)-2,6-dimethylmorpholin-4-yl]pyrimidin-5-yl]-2-[(3S,5R)-3,4,5-trimethylpiperazin-1-yl]phenyl]-6-oxo-1H-pyridine-3-carboxamide]
8.75	COc1cnc(N2CC=C(c3cc(NC(=O)c4c[nH]c(=O)cc4C(F)(F)F)c(N4C[C@@H](C)N(C)[C@@H](C)C4)cc3F)CC2)nc1 [Example 366, N-[4-fluoro-5-[1-(5-methoxypyrimidin-2-yl)-3,6-dihydro-2H-pyridin-4-yl]-2-[(3R,5S)-3,4,5-trimethylpiperazin-1-yl]phenyl]-6-oxo-4-(trifluoromethyl)-1H-pyridine-3-carboxamide]
8.65	CC(C)Oc1ncc(-c2cc(NC(=O)c3c[nH]c(=O)cc3C(F)(F)F)c(N3CCN(C)C(C)C3)cc2F)cn1 (stereo in doubt) [Example 240, N-[4-fluoro-5-(2-propan-2-yloxypyrimidin-5-yl)-2-[(3R)-3,4-dimethylpiperazin-1-yl]phenyl]-6-oxo-4-(trifluoromethyl)-1H-pyridine-3-carboxamide]

same assay, conditions: surface plasmon resonance (SPR); read-out: WDR5 binding affinity (KD)

Structure (SMILES)	pKd
C[C@@H]1CN(c2cc(F)c(-c3cnc(N4CCOC[C@H]4C)nc3)cc2NC(=O)c2cn(C)c(=O)cc2C(F)F)CCN1C (stereo in doubt) [Example 607, 4-(difluoromethyl)-N-[4-fluoro-2-[(3R)-3,4-dimethylpiperazin-1-yl]-5-[2-[(3R)-3-methylmorpholin-4-yl]pyrimidin-5-yl]phenyl]-1-methyl-6-oxopyridine-3-carboxamide]	8.82
CCCN1CC[C@@H]2CN(c3cc(F)c(-c4cnc(N5CCOCC5)nc4)cc3NC(=O)c3c[nH]c(=O)cc3C(F)(F)F)C[C@@H]21 (stereo in doubt) [Example 476, N-[4-fluoro-5-(2-morpholin-4-ylpyrimidin-5-yl)-2-[(3aR,6aR)-1-propyl-2,3,3a,4,6,6a-hexahydropyrrolo[2,3-c]pyrrol-5-yl]phenyl]-6-oxo-4-(trifluoromethyl)-1H-pyridine-3-carboxamide]	8.01
C[C@@H]1CN(c2ccc(-c3cc(NC(=O)c4cn(C)c(=O)cc4C(F)F)c(N4CCN(C)[C@@H](C)C4)cc3F)cn2)CCO1 [Example 516, 4-(difluoromethyl)-N-[4-fluoro-2-[(3S)-3,4-dimethylpiperazin-1-yl]-5-[6-[(2R)-2-methylmorpholin-4-yl]pyridin-3-yl]phenyl]-1-methyl-6-oxopyridine-3-carboxamide]	8.40

Next, values leading:

pKd	Structure (SMILES)
8.01	C[C@@H]1CN(c2cc(F)c(-c3ccc(C(=O)NC(C)(C)CC(C)(C)C)c(F)c3F)cc2NC(=O)c2c[nH]c(=O)cc2C(F)(F)F)C[C@H](C)N1C [Example 669, N-[5-[2,3-difluoro-4-(2,4,4-trimethylpentan-2-ylcarbamoyl)phenyl]-4-fluoro-2-[(3R,5S)-3,4,5-trimethylpiperazin-1-yl]phenyl]-6-oxo-4-(trifluoromethyl)-1H-pyridine-3-carboxamide]
8.50	C[C@@H]1CN(c2cc(F)c(-c3cc(F)c(C(=O)NC4CCCCC4(C)C)c(F)c3)cc2NC(=O)c2c[nH]c(=O)cc2C(F)(F)F)C[C@H](C)N1C (stereo partly drawn) [Example 711, N-[5-[4-[(2,2-dimethylcyclohexyl)carbamoyl]-3,5-difluorophenyl]-4-fluoro-2-[(3R,5S)-3,4,5-trimethylpiperazin-1-yl]phenyl]-6-oxo-4-(trifluoromethyl)-1H-pyridine-3-carboxamide]
8.83	C[C@@H]1CN(c2cc(F)c(-c3ncc(C(=O)NC4CCCCC4)s3)cc2NC(=O)c2c[nH]c(=O)cc2C(F)(F)F)C[C@H](C)N1C [Example 498, N-cyclohexyl-2-[2-fluoro-5-[[6-oxo-4-(trifluoromethyl)-1H-pyridine-3-carbonyl]amino]-4-[(3R,5S)-3,4,5-trimethylpiperazin-1-yl]phenyl]-1,3-thiazole-5-carboxamide]
8.44	C[C@@H]1CN(c2cc(F)c(C3=CCN(C(=O)c4cnccn4)C3)cc2NC(=O)c2c[nH]c(=O)cc2C(F)(F)F)C[C@H](C)N1C [Example 442, N-[4-fluoro-5-[1-(pyrazine-2-carbonyl)-2,5-dihydropyrrol-3-yl]-2-[(3R,5S)-3,4,5-trimethylpiperazin-1-yl]phenyl]-6-oxo-4-(trifluoromethyl)-1H-pyridine-3-carboxamide]
8.76	C[C@@H]1CN(c2ncc(-c3cc(NC(=O)c4cn(C)c(=O)cc4C(F)(F)F)c(N4C[C@@H](C)N(C)[C@@H](C)C4)cc3F)cn2)CCO1 [Example 640, N-[4-fluoro-5-[2-[(2R)-2-methylmorpholin-4-yl]pyrimidin-5-yl]-2-[(3R,5S)-3,4,5-trimethylpiperazin-1-yl]phenyl]-1-methyl-6-oxo-4-(trifluoromethyl)pyridine-3-carboxamide]
8.96	CNC(=O)c1ccc(-c2cc(NC(=O)c3c[nH]c(=O)cc3C(F)(F)F)c(N3C[C@@H](C)N(C)[C@@H](C)C3)cc2F)cc1F [Example 603, N-[4-fluoro-5-[3-fluoro-4-(methylcarbamoyl)phenyl]-2-[(3R,5S)-3,4,5-trimethylpiperazin-1-yl]phenyl]-6-oxo-4-(trifluoromethyl)-1H-pyridine-3-carboxamide]
8.54	C[C@@H]1CN(c2cc(F)c(-c3ncc(C#N)s3)cc2NC(=O)c2c[nH]c(=O)cc2C(F)(F)F)C[C@H](C)N1C [Example 447, N-[5-(5-cyano-1,3-thiazol-2-yl)-4-fluoro-2-[(3R,5S)-3,4,5-trimethylpiperazin-1-yl]phenyl]-6-oxo-4-(trifluoromethyl)-1H-pyridine-3-carboxamide]
8.17	C[C@@H]1CN(c2cc(F)c(-c3ccc(C(N)=O)c(F)c3)cc2NC(=O)c2cn(C)c(=O)cc2C(F)F)C[C@H](C)N1C [Example 592, N-[5-(4-carbamoyl-3-fluorophenyl)-4-fluoro-2-[(3R,5S)-3,4,5-trimethylpiperazin-1-yl]phenyl]-4-(difluoromethyl)-1-methyl-6-oxopyridine-3-carboxamide]
8.63	CC(C)COC(=O)N1CC=C(c2cc(NC(=O)c3c[nH]c(=O)cc3C(F)(F)F)c(N3C[C@@H](C)N(C)[C@@H](C)C3)cc2F)C1 [Example 443, 2-methylpropyl 3-[2-fluoro-5-[[6-oxo-4-(trifluoromethyl)-1H-pyridine-3-carbonyl]amino]-4-[(3R,5S)-3,4,5-trimethylpiperazin-1-yl]phenyl]-2,5-dihydropyrrole-1-carboxylate]
8.73	CNC(=O)c1cc(-c2cc(NC(=O)c3c[nH]c(=O)cc3C(F)F)c(N3C[C@@H](C)N(C)[C@@H](C)C3)cc2F)ccc1F [Example 606, 4-(difluoromethyl)-N-[4-fluoro-5-[4-fluoro-3-(methylcarbamoyl)phenyl]-2-[(3R,5S)-3,4,5-trimethylpiperazin-1-yl]phenyl]-6-oxo-1H-pyridine-3-carboxamide]
